These results are taken from patent publication US10919896B2, “Preparation and uses of pyrimidinone derivatives” (Cancer Research Technology Limited, priority 2016, dated 2021).

Molecules are shown by their SMILES.

Sequence of Cdc7/Dbf4 (O00311 whole entry): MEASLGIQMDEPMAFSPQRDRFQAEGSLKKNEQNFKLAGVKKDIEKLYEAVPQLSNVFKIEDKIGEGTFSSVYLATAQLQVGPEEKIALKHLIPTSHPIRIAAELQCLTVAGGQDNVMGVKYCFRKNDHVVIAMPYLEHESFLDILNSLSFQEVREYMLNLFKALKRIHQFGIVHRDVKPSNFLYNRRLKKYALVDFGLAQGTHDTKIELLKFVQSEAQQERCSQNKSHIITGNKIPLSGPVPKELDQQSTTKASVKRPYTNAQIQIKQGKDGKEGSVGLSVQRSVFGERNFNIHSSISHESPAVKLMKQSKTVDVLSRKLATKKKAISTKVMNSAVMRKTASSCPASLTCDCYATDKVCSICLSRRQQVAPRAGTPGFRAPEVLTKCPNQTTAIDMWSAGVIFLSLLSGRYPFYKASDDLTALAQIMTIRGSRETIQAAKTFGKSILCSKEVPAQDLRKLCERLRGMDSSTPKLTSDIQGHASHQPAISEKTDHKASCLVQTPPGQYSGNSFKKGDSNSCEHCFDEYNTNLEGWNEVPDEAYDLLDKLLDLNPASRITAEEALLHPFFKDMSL
Sequence of Cdc7/Dbf4 (Q9UBU7 whole entry partner): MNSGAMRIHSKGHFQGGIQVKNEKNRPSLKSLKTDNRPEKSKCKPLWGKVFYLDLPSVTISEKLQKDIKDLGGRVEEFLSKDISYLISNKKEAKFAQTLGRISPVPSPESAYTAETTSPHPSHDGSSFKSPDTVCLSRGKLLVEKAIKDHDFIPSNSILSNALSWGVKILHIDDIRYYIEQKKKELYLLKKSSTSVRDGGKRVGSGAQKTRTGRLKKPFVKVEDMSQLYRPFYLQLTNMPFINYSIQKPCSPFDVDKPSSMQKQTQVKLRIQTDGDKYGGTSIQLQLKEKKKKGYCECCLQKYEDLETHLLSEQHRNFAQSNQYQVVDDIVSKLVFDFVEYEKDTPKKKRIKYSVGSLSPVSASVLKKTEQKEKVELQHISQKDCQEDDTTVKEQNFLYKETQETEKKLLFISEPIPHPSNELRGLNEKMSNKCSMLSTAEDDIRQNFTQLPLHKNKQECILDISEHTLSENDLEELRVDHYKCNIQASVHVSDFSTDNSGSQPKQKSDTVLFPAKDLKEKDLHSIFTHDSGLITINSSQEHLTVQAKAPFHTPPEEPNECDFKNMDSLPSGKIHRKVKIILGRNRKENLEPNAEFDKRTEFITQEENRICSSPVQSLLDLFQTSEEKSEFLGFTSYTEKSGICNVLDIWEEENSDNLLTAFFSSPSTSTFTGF

This test concerns the target Cdc7/Dbf4 (Homo sapiens, UniProt O00311). The test is described as follows: Cdc7 Biochemical Assay Method 3: Cdc7/Dbf4 Enzyme TR-FRET Assay measuring pS40MCM2. Particulars: 1 μM ATP, read-out: Biochemical Method 3 (pIC50) (converted). How it is done:
This protocol describes a method for assaying a compounds' ability to inhibit Cdc7 activity by measuring pS40MCM2 levels in a Cdc7/Dbf4 Enzyme TR-FRET Assay.
2.5 nM Cdc7/Dbf4 was incubated with 100 nM of biotin-labelled peptide 35-TDALTS(pS)PGRDLP in the presence of 1 μM ATP at 25° C. for 120 minutes. The phosphorylation of the peptide was detected using TR-FRET. Anti-Mcm2 (pS40) antibody, Terbium anti-rabbit secondary antibody and Streptavidin-Alexa Fluor488 form the detection system.
In the case of `CC(C)(O)[C@H]1CN(c2nc(-c3ccnc(F)c3)[nH]c(=O)c2Cl)CCN1` [Compound 187], the IC50 was 1.86 nM.

In the case of `O=c1[nH]c(-c2ccnc(F)c2)nc(OC2COC2)c1Cl` [Compound 199], the IC50 was 389 nM.

Consider `CC(C)C[C@H]1CN2CCC[C@H]2CN1c1nc(-c2ccnc(F)c2)[nH]c(=O)c1Cl` [Compound 349], for which the IC50 was 83.2 nM.

On to `C[C@@H]1COC[C@@H](C)N1c1nc(-c2ccnc(F)c2)[nH]c(=O)c1Cl` [Compound 341], for which the IC50 was 6.61 nM.

Take `N#C[C@H]1CNCCN1c1nc(-c2ccnc(F)c2)[nH]c(=O)c1Cl` [Compound 344]: the IC50 is 2.75 nM.

In the case of `NC(=O)N1CCN(c2nc(-c3ccnc(F)c3)[nH]c(=O)c2Cl)CC1` [Compound 239], the IC50 is 1.1 nM.

In the case of `O=c1[nH]c(-c2ccnc(F)c2)nc(N2CCC3(CCCN3)C2)c1Cl` (stereo not shown) [Compound 217], the IC50 was 45.7 nM.

On to `C[C@@H]1COC[C@H](C)N1c1nc(-c2ccnc(F)c2)[nH]c(=O)c1Cl` [Compound 343], for which the IC50 is 6.76 nM.

As for `O=c1[nH]c(-c2ccnc(F)c2)nc(N2CCC(CN3CCOCC3)C2)c1Cl` (stereo not shown) [Compound 212], the IC50 was 79.4 nM.

In the case of `O=c1[nH]c(-c2ccnc(F)c2)nc(N2C[C@H]3NCCO[C@@H]3C2)c1Cl` [Compound 237], the IC50 is 7.94 nM.

As for `O=c1[nH]c(-c2ccnc(F)c2)nc(NCc2ccccc2)c1Cl` [Compound 290], the IC50 is 355 nM.

Consider `NC(=O)[C@H]1CCCN1c1nc(-c2ccnc(F)c2)[nH]c(=O)c1Cl` [Compound 247], for which the IC50 is 4.57 nM.

In the case of `O=c1[nH]c(-c2ccnc(F)c2)nc(N2CCCC23CCNC3)c1Cl` (stereo not shown) [Compound 259], the IC50 is 2.82 nM.

Take `CC1(C)CNCCC1Nc1nc(-c2ccnc(F)c2)[nH]c(=O)c1Cl` (stereo not shown) [Compound 211]: the IC50 was 17.4 nM.

Take `O=c1[nH]c(-c2ccnc(F)c2)nc(N2CCOCC(O)C2)c1Cl` (stereo not shown) [Compound 207]: the IC50 was 1.29 nM.

For the compound `O=c1[nH]c(-c2ccnc(F)c2)nc(N2CCC3(CCNC3)C2)c1Cl` (stereo not shown) [Compound 218], the IC50 is 8.13 nM.

`O=c1[nH]c(-c2ccnc(F)c2)nc(N2CCn3cncc3C2)c1Cl` [Compound 346]: the IC50 is 1.05 nM.

For `O=c1[nH]c(-c2ccnc(F)c2)nc(N2CCC3(CCCO3)CC2)c1Cl` [Compound 238], the IC50 was 5.25 nM.

In the case of `CCN(c1nc(-c2ccnc(F)c2)[nH]c(=O)c1Cl)C1CCOCC1` [Compound 266], the IC50 was 36.3 nM.

With `O=c1[nH]c(-c2ccnc(F)c2)nc(SC2CCOCC2)c1Cl` [Compound 191], the IC50 was 3.72 nM.

For `O=c1[nH]c(-c2ccnc(F)c2)nc(N2CCc3nncn3CC2)c1Cl` [Compound 354], the IC50 is 2 nM.

For `C[C@H]1COC[C@H](C)N1c1nc(-c2ccnc(F)c2)[nH]c(=O)c1Cl` [Compound 342], the IC50 was 129 nM.

Turning to `CN(c1nc(-c2ccnc(F)c2)[nH]c(=O)c1Cl)[C@H]1CCCNC1` [Compound 267], the IC50 was 3.89 nM.

As for `NC(=O)CN1CCN(c2nc(-c3ccnc(F)c3)[nH]c(=O)c2Cl)CC(F)(F)C1` [Compound 414, 2-[4-[5-chloro-2-(2-fluoro-4-pyridyl)-6-oxo-1H-pyrimidin-4-yl]-6,6-difluoro-1,4-diazepan-1-yl]acetamide], the IC50 is 0.891 nM.

As to `O=c1[nH]c(-c2ccnc(F)c2)nc(N2CCC3(CCNCC3)C2)c1Cl` [Compound 230], the IC50 is 6.61 nM.

`O=c1[nH]c(-c2ccnc(F)c2)nc(CN2CCNCC2)c1Cl` [Compound 398]: the IC50 is 295 nM.

In the case of `O=c1[nH]c(-c2ccnc(F)c2)nc(N2CCC3(CCNC3)CC2)c1Cl` [Compound 242], the IC50 is 1.15 nM.

As to `O=c1[nH]c(-c2ccnc(F)c2)nc(N2CCn3cnnc3C2)c1Cl` [Compound 269], the IC50 is 0.525 nM.

`CN(c1nc(-c2ccnc(F)c2)[nH]c(=O)c1Cl)C1CCOCC1` [Compound 229]: the IC50 was 8.51 nM.

Turning to `NC(=O)[C@@H]1CCCN1c1nc(-c2ccnc(F)c2)[nH]c(=O)c1Cl` [Compound 248], the IC50 was 42.7 nM.

In the case of `O=c1[nH]c(-c2ccnc(F)c2)nc(N2CCN(c3nc[nH]n3)CC2)c1Cl` [Compound 295], the IC50 is 0.891 nM.

For `O=c1[nH]c(-c2ccnc(F)c2)nc(N2CCC3(CCCN3)CC2)c1Cl` [Compound 241], the IC50 was 2.19 nM.

In the case of `O=c1[nH]c(-c2ccnc(F)c2)nc(N2CCOC3(CCOCC3)C2)c1Cl` [Compound 292], the IC50 was 11.5 nM.

Regarding `N[C@H]1CC[C@@H](Oc2nc(-c3ccnc(F)c3)[nH]c(=O)c2Cl)C1` [Compound 195], the IC50 was 1.32 nM.

As for `CN(C)C(=O)N1CCN(c2nc(-c3ccnc(F)c3)[nH]c(=O)c2Cl)CC1` [Compound 240], the IC50 was 3.72 nM.

With `O=c1[nH]c(-c2ccnc(F)c2)nc(N2CC3CNCC3C2)c1Cl` (stereo not shown) [Compound 226], the IC50 is 3.02 nM.

On to `C[C@H]1CCCN1c1nc(-c2ccnc(F)c2)[nH]c(=O)c1Cl` [Compound 278], for which the IC50 was 14.8 nM.

With `O=c1[nH]c(-c2ccnc(F)c2)nc(N2CCN[C@H](C3(O)CC3)C2)c1Cl` [Compound 311], the IC50 is 2.09 nM.

Consider `CC(=O)N[C@H]1CCN(c2nc(-c3ccnc(F)c3)[nH]c(=O)c2Cl)C1` [Compound 274], for which the IC50 is 5.01 nM.

As for `CN1CCN(C2CCN(c3nc(-c4ccnc(F)c4)[nH]c(=O)c3Cl)CC2)CC1` [Compound 265], the IC50 was 4.07 nM.

In the case of `O=c1[nH]c(-c2ccnc(F)c2)nc(N2CCC3(CC2)OCCO3)c1Cl` [Compound 236], the IC50 was 14.5 nM.

On to `O=c1[nH]c(-c2ccnc(F)c2)nc(N2CCC3(CNC3)C2)c1Cl` [Compound 245], for which the IC50 is 2.04 nM.

For `O=c1[nH]c(-c2ccnc(F)c2)nc(N2CCCC2CN2CCOCC2)c1Cl` (stereo not shown) [Compound 246], the IC50 is 1000 nM.

As for `O=c1[nH]c(-c2ccnc(F)c2)nc(N2CCC(C3CCOCC3)C2)c1Cl` (stereo not shown) [Compound 228], the IC50 was 53.7 nM.

Regarding `O=c1[nH]c(-c2ccnc(F)c2)nc(OC2CNC2)c1Cl` [Compound 194], the IC50 was 14.5 nM.

Take `O=c1[nH]c(-c2ccnc(F)c2)nc(OC2CCNCC2)c1Cl` [Compound 329]: the IC50 was 0.617 nM.

As to `CC(C)NC(=O)C1CCN(c2nc(-c3ccnc(F)c3)[nH]c(=O)c2Cl)CC1` [Compound 255], the IC50 was 7.08 nM.

For the compound `C[C@H]1CCCCN1c1nc(-c2ccnc(F)c2)[nH]c(=O)c1Cl` [Compound 280], the IC50 is 0.871 nM.

`O=c1[nH]c(-c2ccnc(F)c2)nc(N2C[C@H](O)C[C@H](O)C2)c1Cl` [Compound 189]: the IC50 was 1.62 nM.

For the compound `O=c1[nH]c(-c2ccnc(F)c2)nc(NCC2COCCN2)c1Cl` (stereo not shown) [Compound 224], the IC50 was 724 nM.

In the case of `O=c1[nH]c(-c2ccnc(F)c2)nc(O[C@@H]2CCCNC2)c1Cl` [Compound 330], the IC50 is 0.955 nM.

With `O=c1[nH]c(-c2ccnc(F)c2)nc(N2CC[C@@H](O)C2)c1Cl` [Compound 214], the IC50 was 14.8 nM.

`O=c1[nH]c(-c2ccnc(F)c2)nc(N2CCCN(CC(F)(F)F)CC2)c1Cl` [Compound 299]: the IC50 is 6.46 nM.

As to `O=c1[nH]c(-c2ccnc(F)c2)nc(N2CCC[C@H](Nc3ccccc3)C2)c1Cl` [Compound 209], the IC50 is 85.1 nM.

`NC(=O)[C@H]1CCN(c2nc(-c3ccnc(F)c3)[nH]c(=O)c2Cl)C1` [Compound 251]: the IC50 is 4.07 nM.

Turning to `O=c1[nH]c(-c2ccnc(F)c2)nc(N2CCC3(CCCCN3)C2)c1Cl` (stereo not shown) [Compound 213], the IC50 is 53.7 nM.

As to `CC(C)[C@@H]1CN(c2nc(-c3ccnc(F)c3)[nH]c(=O)c2Cl)CCN1` [Compound 327], the IC50 is 6.61 nM.

Take `CO[C@H]1CCCN(c2nc(-c3ccnc(F)c3)[nH]c(=O)c2Cl)C1` [Compound 283]: the IC50 was 5.37 nM.

As for `O=c1[nH]c(-c2ccnc(F)c2)nc(N2CCCC(F)(F)CC2)c1Cl` [Compound 204], the IC50 was 4.07 nM.

With `O=c1[nH]c(-c2ccnc(F)c2)nc(N2CCCC23CCNCC3)c1Cl` [Compound 263], the IC50 is 11 nM.

As for `O=c1[nH]c(-c2ccnc(F)c2)nc(N2CCn3ccnc3C2)c1Cl` [Compound 353], the IC50 was 1.62 nM.

For the compound `CC[C@H]1COCCN1c1nc(-c2ccnc(F)c2)[nH]c(=O)c1Cl` [Compound 336], the IC50 is 1.82 nM.

With `CNC(=O)C1CCCN(c2nc(-c3ccnc(F)c3)[nH]c(=O)c2Cl)C1` (stereo not shown) [Compound 253], the IC50 was 7.41 nM.

Take `O=c1[nH]c(-c2ccnc(F)c2)nc(N2CCC3(CCCNC3)C2)c1Cl` (stereo not shown) [Compound 220]: the IC50 was 15.5 nM.

Consider `O=c1[nH]c(-c2ccnc(F)c2)nc(N2CCC3CNCCC32)c1Cl` (stereo not shown) [Compound 225], for which the IC50 was 2.09 nM.

`O=c1[nH]c(-c2ccnc(F)c2)nc(O[C@H]2CCOC2)c1Cl` [Compound 200]: the IC50 was 8.13 nM.

For the compound `O=c1[nH]c(-c2ccnc(F)c2)nc(N2CCCC3NCCCC32)c1Cl` (stereo not shown) [Compound 264], the IC50 was 1.58 nM.

Take `NC1CN(c2nc(-c3ccnc(F)c3)[nH]c(=O)c2Cl)C1` [Compound 325]: the IC50 was 11.2 nM.

`O=c1[nH]c(-c2ccnc(F)c2)nc(SC2CCNCC2)c1Cl` [Compound 193]: the IC50 was 2.88 nM.

As to `O=c1[nH]c(-c2ccnc(F)c2)nc(NC2CCNCC2)c1Cl` [Compound 222], the IC50 is 13.5 nM.
